Common to all, as to type: cell-based
Data set [1] concerns Bacillus subtilis (KCTC 1918). As to conditions: Gram positive bacterium; 6 hours at 37° C. An excerpt: (§1) The present inventors measured MIC, which is the minimum concentration of not divided bacterial cell, in order to compare the antimicrobial activity of the peptide prepared by the method of <experimental example 1>.
(§2) More specifically, the present inventors used Escherichia coli, Pseudomonas aeruginosa, Proteus vulgaris, Salmonella typhimurium as a Gram negative bacterium and used Staphylococcus aureus, Listeria monocytogenes, Staphylococcus epidermidis, Bacillus subtilis as a Gram positive bacterium. In addition, Escherichia coli (ATCC 25922), Listeria monocytogenes (ATCC 19115), and Staphylococcus aureus (ATCC 25923) were provided by “American Type Culture Collection” and Bacillus subtilis (KCTC 1918), […] (KCTC 3096), Pseudomonas aeruginosa (KCTC 1637) and Proteus vulgaris (KCTC 2433) were provided by “Korean Collection for Type Cultures”. After culturing each strain by up to mid-log phase in LB medium (1% Bacto tryptone, 0.5% extraction of Bacto yeast, 1% sodium chloride; Sigma, USA) and diluting it by the bacterial cell concentration of 1×10^4 cell/100 μl with 1% Bacto pepton medium (Difco, USA), they inoculated the strain to Microtitrate Plate (Nunc, USA). The present inventors added both the peptide of the present invention (experimental group 1 and 2) synthesized in the <experimental example 1> and maternal peptide(control group) into the plate after diluting separately by 1/2 times from 25 μM/well, and cultured them for 6 hours at 37° C. In addition, they measured absorbance under 620 nm of wavelength using Microtitrate Plate reader (Merck Elisa reader, Germany) and determined the MIC value of each strain, after then they described the final result in the following Table 2.

The subject of the next data set is human erythrocyte. The data set can be described thus: Erythrocyte hemolytic activity. As to conditions: for hemolytic activity (result in words): human erythrocyte, by the concentration of 200 μM; for % Hemolysis: 8% human erythrocyte in PBS pH 7.0, 1 hour, 1% triton X-100 = 100%. How it is done: Firstly, the present inventors diluted human erythrocyte with phosphate buffer (PBS, pH 7.0) to be a 8% concentration and then, they diluted each described peptide comprising the amino acid sequence of SEQ. ID. NO: 1 to 3 in the Table 1 continually at the 1/2 concentration starting from 200 μM and make them reacted for 1 hour at 37. After then, the present inventors measured the amount of hemoglobin included in the supernatant obtained by centrifugating it with 1,000 g and the absorbance under the 414 nm of wavelength of the supernatant. In order to investigate relative level a comparative study of cytotoxicity, they measured the absorbance of supernatant with adding 1% triton X-100 (sigma, USA) to the human erythrocyte cell. Making the cytotoxicity of 1% triton X-100 to become a 100%, the present inventors calculated hemolysis of the peptides (experimental group 1 and 2) and maternal peptides (control group) of the present invention according to the following mathematical formula.
In the mathematical formula, absorbance A means the absorbance of the peptide solution under the 414 nm of wavelength, absorbance B means the absorbance of PBS under the 414 nm of wavelength and absorbance C means the absorbance of 1% triton X-100 under the 414 nm of wavelength.

In another data set the test system is HaCaT cell line. The data set can be described thus: Cytotoxicity in the normal cell line (MTT). As for the experimental part:
(§3) In order to confirm the cytotoxicity in the normal cell line, which was prepared by the <experimental example 1>, the present inventors measured the cytotoxicity using HaCaT cell line (Dr. N E. Fusenig, Heidelberg, Germany) and NIH3T3 cell line (ATCC(CRL-1658™)).
(§4) Specifically, they inject HaCaT cell line and NIH3T3 cell line, which were cultured in DMEM badge including 10% FBS (Fetal Bovine Serum), into 96-well plate with 3×10^3 each and cultured them for 24 hours, after then, they treated the peptides prepared by the <experimental example> to the HaCaT cell line and NIH3T3 cell line according to the concentration respectively and reacted them in the 5% CO2 incubator for 24 hours. After culturing, they put 20 ul of MTT (Thiazolyl Blue Tetrazolium Bromide) solution (5 mg/ml in PBS), into each well and reacted them four hours. And they removed supernatant and melted MTT crystal prepared by adding 200 ul of DMSO, and then they studied the result at 560 nm.

A further data set concerns NIH3T3 cell line. In words: Cytotoxicity in the normal cell line (MTT). As for the experimental part: as §3, §4
Data set [2] relates to Staphylococcus epidermidis. The data set can be described thus: MIC, antimicrobial activity (microtitrate plate, absorbance 620 nm). As to conditions: Gram positive bacterium; 6 hours at 37° C.
Description: as §1, §2

For data set [3], the system named is Escherichia coli (ATCC 25922). Described as above. Particulars: Gram negative bacterium; 6 hours at 37° C.
Description: as §1, §2

The subject of the next data set is Salmonella typhimurium. The description is as above. Particulars: Gram negative bacterium; 6 hours at 37° C.
Description: as §1, §2

The subject of data set [4] is Listeria monocytogenes (ATCC 19115). Described as above. Particulars: Gram positive bacterium; 6 hours at 37° C.
Description: as §1, §2

In data set [5] the test system is Staphylococcus aureus (ATCC 25923). Described as above. Particulars: Gram positive bacterium; 6 hours at 37° C.
Description: as §1, §2

The test system of data set [6] is Proteus vulgaris (KCTC 2433). Described as above. Particulars: Gram negative bacterium; 6 hours at 37° C.
Description: as §1, §2

For data set [7], the system named is Pseudomonas aeruginosa (KCTC 1637). Described as above. As to conditions: Gram negative bacterium; 6 hours at 37° C.
Description: as §1, §2

Where [8] appears, read: NIH3T3 cell line, 24 hours, MTT.

“Also recorded” adds a separate entry of the source. Read-outs that look alike come from different tables or passages of the source. Where no end group is shown, it is not given here.

This note sets out measurements from patent US8410046B2, “Antibiotic peptide derived from ribosomal protein L1 of Helicobacter pylori and use thereof” (Industry-Academic Cooperation Foundation, Chosun University, priority 2008, dated 2013).

On to “AKRLKKLAKKIWKWK-NH2 [NT3-F1AF8A-A2, AKRLKKLAKKIWKWK-NH2]”, for which the “MIC Bacillus subtilis” value in [1] was 2 µM. In the data set with human erythrocyte, the “hemolytic activity (result in words)” value was “no hemolytic activity”. Also, the “% Hemolysis” value in the data set with human erythrocyte (peptide 3.13 μM), in the data set on human erythrocyte (peptide 6.25 μM), with human erythrocyte (peptide 12.5 μM), in the data set on human erythrocyte (peptide 25 μM), in the data set with human erythrocyte (peptide 50 μM) and in the data set on human erythrocyte (peptide 100 μM) was 0% in each case. For the same substance, in the data set on human erythrocyte (peptide 200 μM), the “% Hemolysis” value was determined as 0%. Also, the “cytotoxicity (result in words, FIG. 1)” value in the data set on HaCaT cell line is on record as “little cytotoxicity”. Also, the “cytotoxicity (result in words, FIG. 2)” value in the data set with NIH3T3 cell line is listed as “little cytotoxicity”. In addition, the “MIC Staphylococcus epidermidis” value in data set [2] is 2 to 4 µM. In addition, in [3], the “MIC Escherichia coli” value amounted to 4 µM. In the data set on Salmonella typhimurium, the “MIC Salmonella typhimurium” value lay within 1 to 2 µM. Also, the “MIC Listeria monocytogenes” value in data set [4] was found to be 2 µM. Further, the “MIC Staphylococcus aureus” value in data set [5] worked out at 4 µM. Further, the “MIC Proteus vulgaris” value in data set [6] lay within 2 to 4 µM. Besides, the “MIC Pseudomonas aeruginosa” value in data set [7] is 2 µM.

As for “AKRLKKLAKKIWNWK-NH2 [NT3-F1AF8A, AKRLKKLAKKIWNWK-NH2]”, the “MIC Bacillus subtilis” value in data set [1] amounted to 4 µM. In the data set on human erythrocyte, the “hemolytic activity (result in words)” value is on record as “no hemolytic activity; also recorded: did not generate hemolytic phenomenon”. For the same substance, the “% Hemolysis” value in the data set on human erythrocyte (peptide 3.13 μM), with human erythrocyte (peptide 6.25 μM), in the data set on human erythrocyte (peptide 12.5 μM), in the data set with human erythrocyte (peptide 25 μM), with human erythrocyte (peptide 50 μM) and with human erythrocyte (peptide 100 μM) was 0% in each case. Moreover, the “% Hemolysis” value with human erythrocyte (peptide 200 μM) worked out at 0%. Besides, the “cytotoxicity (result in words, FIG. 1)” value in the data set on HaCaT cell line (HaCaT cell line, 24 hours, MTT) is recorded as “little cytotoxicity”. For the same substance, the “cytotoxicity (result in words, FIG. 2)” value in the data set with NIH3T3 cell line (setting [8]) is listed as “little cytotoxicity”. In addition, the “MIC Staphylococcus epidermidis” value in data set [2] came to 16 µM. The “MIC Escherichia coli” value in data set [3] lay in the range of 16 to 32 µM. Also, the “MIC Salmonella typhimurium” value against Salmonella typhimurium was determined as 2 µM. Further, the “MIC Listeria monocytogenes” value in [4] was 2 µM. Further, the “MIC Staphylococcus aureus” value in data set [5] is 4 to 8 µM. In addition, the “MIC Proteus vulgaris” value in data set [6] came out at 4 µM. In addition, in [7], the “MIC Pseudomonas aeruginosa” value came to 2 µM.

On to “FKRLKKLFKKIWNWK-NH2 [HPA3NT3, FKRLKKLFKKIWNWK-NH2, reference compound]”, for which the “MIC Bacillus subtilis” value in [1] stood at 2 µM. For the same substance, the “% Hemolysis” value with human erythrocyte (peptide 3.13 μM) came to 0%; in the data set with human erythrocyte (peptide 6.25 μM), 0%; with human erythrocyte (peptide 12.5 μM), 0%; with human erythrocyte (peptide 25 μM), 0%; with human erythrocyte (peptide 50 μM), 7.12%; in the data set with human erythrocyte (peptide 100 μM) it was 11.35%. Also, the “% Hemolysis” value in the data set on human erythrocyte (peptide 200 μM) was found to be 37.23%. Further, the “cytotoxicity (result in words, FIG. 1)” value in the data set with HaCaT cell line (HaCaT cell line, 24 hours, MTT) is “high cytotoxicity”. Besides, the “cytotoxicity (result in words, FIG. 2)” value with NIH3T3 cell line (setting [8]) is “high cytotoxicity”. In data set [2], the “MIC Staphylococcus epidermidis” value is 2 to 4 µM. In data set [3], the “MIC Escherichia coli” value came out at 4 µM. The “MIC Salmonella typhimurium” value in the data set on Salmonella typhimurium amounted to 2 µM. Moreover, in data set [4], the “MIC Listeria monocytogenes” value was 2 µM. Moreover, in [5], the “MIC Staphylococcus aureus” value was 2 µM. Besides, in data set [6], the “MIC Proteus vulgaris” value was 8 µM. Moreover, in data set [7], the “MIC Pseudomonas aeruginosa” value was determined as 2 µM.
